Assay results reported in ChEMBL document CHEMBL1201862, “PubChem BioAssay data set” (2004).
The source made the active and inactive calls.

Columns and labels:
[1] = target: T1, Corticotropin-releasing factor receptor 2/Corticotropin-releasing factor-binding protein (Homo sapiens, UniProt P24387+Q13324); experiment: activators of CRF receptor 2 with binding protein – uHTS hits, confirmation (AID 602473); format: functional; conditions: read-out: EC50_Mean
T1 sequence (Q13324 whole entry): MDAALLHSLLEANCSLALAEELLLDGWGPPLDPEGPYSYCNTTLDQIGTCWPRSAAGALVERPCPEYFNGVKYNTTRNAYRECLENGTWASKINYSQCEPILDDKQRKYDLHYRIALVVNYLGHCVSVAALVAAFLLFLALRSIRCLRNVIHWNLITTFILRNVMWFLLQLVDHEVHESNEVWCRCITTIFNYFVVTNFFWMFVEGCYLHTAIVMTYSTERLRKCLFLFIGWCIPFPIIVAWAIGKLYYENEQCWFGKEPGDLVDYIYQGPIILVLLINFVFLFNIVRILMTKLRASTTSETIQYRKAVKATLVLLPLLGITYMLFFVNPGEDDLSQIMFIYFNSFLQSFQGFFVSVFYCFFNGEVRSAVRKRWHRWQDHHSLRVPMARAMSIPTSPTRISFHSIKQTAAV
T1 sequence (P24387 whole entry): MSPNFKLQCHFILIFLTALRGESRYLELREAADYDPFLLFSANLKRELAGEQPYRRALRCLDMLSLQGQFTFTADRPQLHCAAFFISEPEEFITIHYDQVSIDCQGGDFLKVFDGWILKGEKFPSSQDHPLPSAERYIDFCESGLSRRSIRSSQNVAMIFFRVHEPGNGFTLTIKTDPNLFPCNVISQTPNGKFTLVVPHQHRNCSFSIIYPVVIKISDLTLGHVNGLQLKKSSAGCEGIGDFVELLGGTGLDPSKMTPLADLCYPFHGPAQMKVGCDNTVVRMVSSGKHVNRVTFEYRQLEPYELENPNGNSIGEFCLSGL

[2] = blockers of CRF-binding protein–CRF-R2 complex – cell-based, uHTS hits, 384-well, dose response (AID 651639); format: functional, Homo sapiens; conditions: read-out: IC50_Mean
[3] = target: T1, Corticotropin-releasing factor receptor 2/Corticotropin-releasing factor-binding protein; experiment: Dose Response confirmation of uHTS hits for small molecule antagonists of the CRF-binding protein and CRF-R2 receptor complex.; format: functional; conditions: read-out: IC50_Mean
[4] = HGIII-sPLA2 enzyme inhibition potency – biochemical, QFRET, IC50, dose response (AID 743457);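 note: green fluorescence rise as the enzyme cleaves BODIPY PC-A2 in liposomes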
[5] = target: Oxysterols receptor LXR-beta (Homo sapiens, UniProt P55055); format: functional, cell-based;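 note: Cell-based luminescence dose-response assay of agonist activity at LXR, run as a confirmatory counterscreen to a daf-12 agonist screen; HEK293 cells with Gal4-LXR fusion and GAL4-driven luciferase reporter; agonist potency from rising luciferase signal of a Gal4-LXR reporter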
Oxysterols receptor LXR-beta, sequence (P55055 whole entry, the tested form may be a part): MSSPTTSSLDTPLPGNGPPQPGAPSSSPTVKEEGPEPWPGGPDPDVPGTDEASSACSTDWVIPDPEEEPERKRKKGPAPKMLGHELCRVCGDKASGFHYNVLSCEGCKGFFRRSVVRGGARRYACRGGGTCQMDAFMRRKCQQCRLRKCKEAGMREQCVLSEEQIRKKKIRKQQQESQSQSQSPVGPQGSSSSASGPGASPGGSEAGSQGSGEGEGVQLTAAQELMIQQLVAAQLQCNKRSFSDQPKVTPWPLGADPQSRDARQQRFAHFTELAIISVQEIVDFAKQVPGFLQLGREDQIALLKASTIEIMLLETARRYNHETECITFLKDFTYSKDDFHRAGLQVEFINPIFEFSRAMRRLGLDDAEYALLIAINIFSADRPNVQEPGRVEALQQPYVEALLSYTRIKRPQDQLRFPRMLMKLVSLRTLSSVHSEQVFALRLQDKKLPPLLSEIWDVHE

cells [6] = experiment: cells
[7] = target: T2, DNA repair and recombination protein RAD54-like (Homo sapiens, UniProt Q92698); experiment: RAD54 Holliday junction migration blockers – biochemical, fluorescence, cherry-picked samples, dose series, confirmation (AID 651657); format: functional
T2 sequence (Q92698 whole entry): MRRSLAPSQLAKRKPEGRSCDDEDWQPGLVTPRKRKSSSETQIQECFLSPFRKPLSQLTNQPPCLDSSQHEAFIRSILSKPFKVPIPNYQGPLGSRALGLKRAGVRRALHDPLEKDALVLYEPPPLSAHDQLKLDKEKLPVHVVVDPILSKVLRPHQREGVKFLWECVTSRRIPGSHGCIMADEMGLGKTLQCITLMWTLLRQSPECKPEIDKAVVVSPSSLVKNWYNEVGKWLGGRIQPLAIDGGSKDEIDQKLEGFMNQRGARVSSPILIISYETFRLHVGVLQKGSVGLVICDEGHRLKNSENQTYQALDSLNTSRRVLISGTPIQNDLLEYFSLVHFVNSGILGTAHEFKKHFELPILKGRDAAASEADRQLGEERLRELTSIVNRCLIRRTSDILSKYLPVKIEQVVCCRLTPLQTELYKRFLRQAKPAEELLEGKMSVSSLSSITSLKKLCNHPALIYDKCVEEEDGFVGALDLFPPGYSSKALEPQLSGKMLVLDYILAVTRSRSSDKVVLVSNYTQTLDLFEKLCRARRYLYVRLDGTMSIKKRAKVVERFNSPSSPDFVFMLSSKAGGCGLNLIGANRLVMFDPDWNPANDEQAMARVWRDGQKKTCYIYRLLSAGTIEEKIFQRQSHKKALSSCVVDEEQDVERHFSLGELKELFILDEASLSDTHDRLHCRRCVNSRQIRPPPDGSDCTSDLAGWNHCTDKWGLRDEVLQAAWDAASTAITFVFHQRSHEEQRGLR

[8] = target: T3, DNA repair protein RAD52 homolog (Homo sapiens, UniProt P43351); format: functional, biochemical
T3 sequence (P43351 whole entry): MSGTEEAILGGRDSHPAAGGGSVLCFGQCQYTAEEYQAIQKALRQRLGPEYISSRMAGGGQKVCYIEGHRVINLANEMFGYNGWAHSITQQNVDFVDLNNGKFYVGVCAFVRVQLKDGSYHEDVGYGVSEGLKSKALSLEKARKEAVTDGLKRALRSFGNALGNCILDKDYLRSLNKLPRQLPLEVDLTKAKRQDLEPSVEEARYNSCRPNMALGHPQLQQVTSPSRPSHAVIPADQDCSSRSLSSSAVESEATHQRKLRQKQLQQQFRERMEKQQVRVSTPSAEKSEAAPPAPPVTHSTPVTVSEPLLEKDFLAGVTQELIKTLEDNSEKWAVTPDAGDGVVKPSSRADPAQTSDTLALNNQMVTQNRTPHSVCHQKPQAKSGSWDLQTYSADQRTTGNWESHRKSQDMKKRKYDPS

[9] = cytotoxicity toward MDA-MB-231 breast cancer cells – cell-based, CellTiter-Glo luminescence, cherry-pick, cytotoxicity control for RAD54 inhibitor project, dose response (AID 651692); format: functional
[10] = NIH3T3 cell viability loss – ATP luminescence, mouse fibroblasts, counter-screen, dose response (AID 2010); format: functional, cell-based;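 note: cells exposed to compound for about 90 hours before reading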
[11] = Trypanosoma cruzi growth suppression in host cells – NIH3T3 host cells, beta-gal luminescence, confirmation (AID 2044); format: functional, cell-based;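 note: intracellular parasites grown in NIH/3T3 mouse fibroblasts as host cells; luminescent beta-galactosidase reporter signal from transgenic T. cruzi replicating inside host cells; inhibitors lower the luminescence signal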
Cytochrome P450 3A4 = Cytochrome P450 3A4 (Homo sapiens, UniProt P08684); conditions: Potency;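 note: confirmatory qHTS run detecting inhibitors and substrates of CYP3A4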
Cytochrome P450 3A4, sequence (P08684 whole entry): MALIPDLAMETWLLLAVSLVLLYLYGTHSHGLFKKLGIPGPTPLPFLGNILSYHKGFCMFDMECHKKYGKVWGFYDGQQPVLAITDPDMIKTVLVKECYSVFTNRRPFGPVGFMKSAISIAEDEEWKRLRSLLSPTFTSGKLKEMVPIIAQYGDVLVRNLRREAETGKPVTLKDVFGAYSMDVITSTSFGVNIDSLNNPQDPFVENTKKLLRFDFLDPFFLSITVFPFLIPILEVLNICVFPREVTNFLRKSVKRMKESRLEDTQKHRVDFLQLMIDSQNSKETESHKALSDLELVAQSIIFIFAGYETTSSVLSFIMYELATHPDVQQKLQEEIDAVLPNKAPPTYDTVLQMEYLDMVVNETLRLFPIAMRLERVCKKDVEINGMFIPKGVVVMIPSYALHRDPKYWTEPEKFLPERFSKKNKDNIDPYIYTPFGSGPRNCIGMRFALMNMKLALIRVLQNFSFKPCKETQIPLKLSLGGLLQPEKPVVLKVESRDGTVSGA

[12] = general mammalian cell viability loss – inhibitor set, cherry-pick, set 2, cytotoxicity control for miR-122 modulator project, dose response (AID 720697); format: functional, cell-based
cells [13] = format: functional, cell-based
[14] = target: T4, Sentrin-specific protease 1 (Homo sapiens, UniProt Q9P0U3); experiment: Dose response confirmation of small molecule inhibitors of the catalytic domain of the SUMO protease, SENP1 in a FRET assay.; format: functional; conditions: read-out: IC50_Mean
T4 sequence (Q9P0U3 whole entry): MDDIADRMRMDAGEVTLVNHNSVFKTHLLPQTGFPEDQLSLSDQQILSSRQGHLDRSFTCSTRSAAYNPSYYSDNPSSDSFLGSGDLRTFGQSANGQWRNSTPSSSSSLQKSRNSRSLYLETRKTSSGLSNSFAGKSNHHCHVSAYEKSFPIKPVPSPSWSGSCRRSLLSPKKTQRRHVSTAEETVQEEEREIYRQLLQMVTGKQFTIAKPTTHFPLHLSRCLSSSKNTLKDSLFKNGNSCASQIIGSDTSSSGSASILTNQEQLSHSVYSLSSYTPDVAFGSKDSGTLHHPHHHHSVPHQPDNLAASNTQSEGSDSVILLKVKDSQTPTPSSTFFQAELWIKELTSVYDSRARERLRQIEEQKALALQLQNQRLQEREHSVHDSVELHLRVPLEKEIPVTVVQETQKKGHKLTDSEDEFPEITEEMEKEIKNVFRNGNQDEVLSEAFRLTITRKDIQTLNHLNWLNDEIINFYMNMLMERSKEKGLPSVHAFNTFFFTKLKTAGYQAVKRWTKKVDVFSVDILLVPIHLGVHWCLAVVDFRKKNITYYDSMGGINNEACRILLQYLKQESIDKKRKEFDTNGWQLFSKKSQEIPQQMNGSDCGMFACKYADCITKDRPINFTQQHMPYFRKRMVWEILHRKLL

[15] = target: T4, Sentrin-specific protease 1; experiment: SENP1 catalytic domain blockers, concentration series – biochemical, kinetic FRET, dose response (AID 651697); format: functional; conditions: read-out: IC50_Mean
[16] = target: Disintegrin and metalloproteinase domain-containing protein 17 (Homo sapiens, UniProt P78536); experiment: exosite inhibitors of ADAM17, dose response, biochemical (AID 743260)
Disintegrin and metalloproteinase domain-containing protein 17, sequence (P78536 whole entry, the tested form may be a part): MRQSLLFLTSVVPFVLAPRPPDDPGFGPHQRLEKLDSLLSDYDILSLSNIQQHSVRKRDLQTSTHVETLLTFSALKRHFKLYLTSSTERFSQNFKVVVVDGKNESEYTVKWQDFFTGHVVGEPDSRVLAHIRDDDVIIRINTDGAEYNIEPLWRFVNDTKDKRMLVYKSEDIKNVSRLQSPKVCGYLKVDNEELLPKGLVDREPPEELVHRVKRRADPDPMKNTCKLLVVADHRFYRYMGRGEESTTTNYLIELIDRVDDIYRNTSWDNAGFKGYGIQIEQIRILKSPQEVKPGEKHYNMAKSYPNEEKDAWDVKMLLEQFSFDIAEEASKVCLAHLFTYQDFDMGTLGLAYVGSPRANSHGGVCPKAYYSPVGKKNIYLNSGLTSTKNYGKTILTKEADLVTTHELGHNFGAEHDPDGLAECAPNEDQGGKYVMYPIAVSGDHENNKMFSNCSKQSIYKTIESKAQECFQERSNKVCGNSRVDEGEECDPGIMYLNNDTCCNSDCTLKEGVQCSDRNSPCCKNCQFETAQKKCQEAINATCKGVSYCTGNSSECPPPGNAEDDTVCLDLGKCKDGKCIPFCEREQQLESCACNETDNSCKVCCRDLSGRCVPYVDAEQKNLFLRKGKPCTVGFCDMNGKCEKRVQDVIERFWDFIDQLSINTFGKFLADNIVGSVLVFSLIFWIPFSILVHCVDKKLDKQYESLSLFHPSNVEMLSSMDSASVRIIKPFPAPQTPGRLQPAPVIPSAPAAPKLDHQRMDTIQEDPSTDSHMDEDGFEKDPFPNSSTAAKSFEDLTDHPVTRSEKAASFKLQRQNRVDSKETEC

[17] = inhibition of ADAM10 peptide cleavage – biochemical, FRET peptide substrate, recombinant human ADAM10, selectivity assay for ADAM17 exosite inhibitor project, dose response (AID 743259);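 note: ADAM10 enzyme cleaving a FRET peptide substrate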
[18] = target: T5, Sentrin-specific protease 8 (Homo sapiens, UniProt Q96LD8); format: functional
T5 sequence (Q96LD8 whole entry): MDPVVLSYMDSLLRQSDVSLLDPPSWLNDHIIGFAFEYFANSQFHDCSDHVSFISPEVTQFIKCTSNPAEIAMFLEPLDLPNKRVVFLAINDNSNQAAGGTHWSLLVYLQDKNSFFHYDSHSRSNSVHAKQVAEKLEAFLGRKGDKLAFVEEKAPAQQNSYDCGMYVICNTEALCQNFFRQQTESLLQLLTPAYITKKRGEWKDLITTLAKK

[19] = target: T5, Sentrin-specific protease 8; format: functional; remark: listed apart in the source
[20] = target: Long-chain-fatty-acid--AMP ligase FadD28 (Mycobacterium tuberculosis, UniProt P9WQ59); experiment: Fluorescence polarization aasay to screen for inhibitors that compete for the binding of FadD28 to a bisubstrate Measured in Biochemical System Using Plate Reader - 2147-01_Inhibitor_Dose_CherryPick_Activity.; format: functional, Mycobacterium tuberculosis H37Rv
Long-chain-fatty-acid--AMP ligase FadD28, sequence (P9WQ59 whole entry): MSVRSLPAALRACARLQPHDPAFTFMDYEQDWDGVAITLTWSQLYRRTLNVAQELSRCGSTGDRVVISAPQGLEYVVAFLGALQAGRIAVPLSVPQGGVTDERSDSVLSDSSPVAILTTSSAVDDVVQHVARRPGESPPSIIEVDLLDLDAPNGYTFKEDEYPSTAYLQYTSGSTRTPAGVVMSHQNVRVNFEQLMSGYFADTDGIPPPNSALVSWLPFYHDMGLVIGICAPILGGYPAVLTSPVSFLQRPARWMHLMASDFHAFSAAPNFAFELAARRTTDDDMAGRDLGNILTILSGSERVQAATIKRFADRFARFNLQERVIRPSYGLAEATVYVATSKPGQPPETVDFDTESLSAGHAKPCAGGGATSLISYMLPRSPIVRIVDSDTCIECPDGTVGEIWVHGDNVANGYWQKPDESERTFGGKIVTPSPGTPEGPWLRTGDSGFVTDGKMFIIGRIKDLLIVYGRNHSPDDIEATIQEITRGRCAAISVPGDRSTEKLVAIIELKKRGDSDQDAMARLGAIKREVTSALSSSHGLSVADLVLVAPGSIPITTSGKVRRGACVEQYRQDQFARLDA

[21] = target: ADP-ribosylation factor GTPase-activating protein 1 (Rattus norvegicus, UniProt Q62848); experiment: Fluorescence polarization-based biochemical high throughput dose response screening assay to identify inhibitors of ADP-ribosylation factor GTPase activating protein 1 (ARFGAP1).; format: functional
ADP-ribosylation factor GTPase-activating protein 1, sequence (Q62848 whole entry, the tested form may be a part): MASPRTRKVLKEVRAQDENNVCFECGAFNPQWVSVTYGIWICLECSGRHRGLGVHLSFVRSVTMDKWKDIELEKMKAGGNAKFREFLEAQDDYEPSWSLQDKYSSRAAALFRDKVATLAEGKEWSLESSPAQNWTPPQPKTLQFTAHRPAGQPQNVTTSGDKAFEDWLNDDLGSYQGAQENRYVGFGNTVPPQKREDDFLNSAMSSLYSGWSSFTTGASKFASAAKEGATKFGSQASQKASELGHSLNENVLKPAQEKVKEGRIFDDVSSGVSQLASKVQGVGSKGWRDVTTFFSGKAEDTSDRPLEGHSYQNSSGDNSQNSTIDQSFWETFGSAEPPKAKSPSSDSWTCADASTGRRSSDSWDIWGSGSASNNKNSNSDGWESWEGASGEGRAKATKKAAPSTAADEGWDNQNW

[22] = target: Arf-GAP with SH3 domain, ANK repeat and PH domain-containing protein 1 (Homo sapiens, UniProt Q9ULH1); format: functional;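 note: biochemical fluorescence polarization dose–response screen measuring inhibition of ASAP1; ASAP1 GAP domain stimulating GTP hydrolysis by truncated human ARF1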
Arf-GAP with SH3 domain, ANK repeat and PH domain-containing protein 1, sequence (Q9ULH1 whole entry, the tested form may be a part): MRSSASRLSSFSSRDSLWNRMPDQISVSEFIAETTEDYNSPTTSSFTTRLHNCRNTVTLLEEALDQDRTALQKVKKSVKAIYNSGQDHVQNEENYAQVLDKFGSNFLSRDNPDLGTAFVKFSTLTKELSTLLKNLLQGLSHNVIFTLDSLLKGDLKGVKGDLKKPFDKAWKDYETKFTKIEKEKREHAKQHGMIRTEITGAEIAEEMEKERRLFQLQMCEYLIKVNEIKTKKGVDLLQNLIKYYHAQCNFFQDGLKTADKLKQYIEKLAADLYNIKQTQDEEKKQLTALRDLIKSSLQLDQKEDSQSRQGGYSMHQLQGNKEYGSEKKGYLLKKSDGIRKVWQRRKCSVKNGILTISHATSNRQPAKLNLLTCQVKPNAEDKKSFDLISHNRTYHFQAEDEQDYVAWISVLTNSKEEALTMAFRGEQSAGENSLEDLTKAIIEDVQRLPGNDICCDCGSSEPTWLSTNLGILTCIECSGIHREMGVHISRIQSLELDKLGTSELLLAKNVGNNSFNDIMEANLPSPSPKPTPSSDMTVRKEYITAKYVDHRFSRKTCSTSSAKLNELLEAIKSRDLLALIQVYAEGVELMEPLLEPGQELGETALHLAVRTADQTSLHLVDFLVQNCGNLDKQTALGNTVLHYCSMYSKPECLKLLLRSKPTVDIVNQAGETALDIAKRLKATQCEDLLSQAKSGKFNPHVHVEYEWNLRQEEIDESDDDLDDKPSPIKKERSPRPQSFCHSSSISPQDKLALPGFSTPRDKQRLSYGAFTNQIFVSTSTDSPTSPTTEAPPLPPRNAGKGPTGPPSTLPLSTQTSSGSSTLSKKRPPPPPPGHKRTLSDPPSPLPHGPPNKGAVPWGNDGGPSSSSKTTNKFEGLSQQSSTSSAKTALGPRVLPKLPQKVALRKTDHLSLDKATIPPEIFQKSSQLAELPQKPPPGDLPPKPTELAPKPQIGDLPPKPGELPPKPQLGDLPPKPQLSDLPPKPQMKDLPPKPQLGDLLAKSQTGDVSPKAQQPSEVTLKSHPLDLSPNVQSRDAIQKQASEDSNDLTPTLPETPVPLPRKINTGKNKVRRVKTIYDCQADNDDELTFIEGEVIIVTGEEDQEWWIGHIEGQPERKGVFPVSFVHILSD

[23] = target: T6, Rac GTPase-activating protein 1 (Homo sapiens, UniProt Q9H0H5); experiment: blockers of MgcRacGAP-driven Rac1 GTP hydrolysis – biochemical, ADP Hunter fluorescence, primary and confirmatory, confirmation (AID 624330); format: functional
T6 sequence (Q9H0H5 whole entry): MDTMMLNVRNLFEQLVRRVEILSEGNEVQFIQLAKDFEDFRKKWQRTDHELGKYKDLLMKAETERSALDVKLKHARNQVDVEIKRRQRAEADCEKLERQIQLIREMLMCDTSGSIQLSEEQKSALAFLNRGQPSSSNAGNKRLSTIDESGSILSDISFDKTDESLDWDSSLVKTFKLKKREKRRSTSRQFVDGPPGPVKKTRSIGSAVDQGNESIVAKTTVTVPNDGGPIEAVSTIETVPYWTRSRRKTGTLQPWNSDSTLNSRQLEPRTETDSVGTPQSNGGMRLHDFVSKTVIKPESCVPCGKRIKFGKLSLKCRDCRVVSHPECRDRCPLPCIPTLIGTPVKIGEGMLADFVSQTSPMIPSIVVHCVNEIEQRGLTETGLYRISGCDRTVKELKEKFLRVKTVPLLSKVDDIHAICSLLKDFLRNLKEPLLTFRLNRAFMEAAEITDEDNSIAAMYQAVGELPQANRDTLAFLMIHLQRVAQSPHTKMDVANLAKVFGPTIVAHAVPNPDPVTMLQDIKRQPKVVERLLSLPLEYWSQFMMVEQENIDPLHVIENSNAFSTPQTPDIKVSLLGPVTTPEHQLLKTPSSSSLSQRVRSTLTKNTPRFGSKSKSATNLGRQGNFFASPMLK

[24] = target: Photoreceptor-specific nuclear receptor (Homo sapiens, UniProt Q9Y5X4); format: functional, cell-based;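 note: CHO-S cells with Gal4-NCOR and VP16-NR2E3 two-hybrid luciferase reporter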
Photoreceptor-specific nuclear receptor, sequence (Q9Y5X4 whole entry, the tested form may be a part): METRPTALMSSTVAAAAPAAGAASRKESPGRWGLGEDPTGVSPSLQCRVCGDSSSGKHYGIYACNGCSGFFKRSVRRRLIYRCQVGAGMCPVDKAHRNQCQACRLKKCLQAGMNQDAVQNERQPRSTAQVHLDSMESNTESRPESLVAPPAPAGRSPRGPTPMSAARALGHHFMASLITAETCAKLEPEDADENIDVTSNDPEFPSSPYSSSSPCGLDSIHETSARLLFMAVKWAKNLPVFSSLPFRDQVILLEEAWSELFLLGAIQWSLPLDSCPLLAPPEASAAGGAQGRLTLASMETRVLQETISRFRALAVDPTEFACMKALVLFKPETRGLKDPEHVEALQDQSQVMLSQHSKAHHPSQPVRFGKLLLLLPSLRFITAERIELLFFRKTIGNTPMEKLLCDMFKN

[25] = viability loss in HeLa cells – cytotoxicity control for MgcRacGAP inhibitor project, dose response (AID 624300); format: functional

Cc1ccc(N(C(=O)c2nsc(Cl)c2Cl)C(C(=O)NC2CCCC2)c2ccc(O)cc2)cc1C (stereo not given)
EC50 [1]: > 53 µM (inactive) | IC50 [2]: > 20 µM (inactive) | IC50 [3]: 5.91 µM (active)

CC(C)Oc1ccc(CC(=O)NN=C(S)Nc2ccccc2)cc1
IC50 [4]: > 122 µM (inactive)

Fc1cccc(Cl)c1/C=C/c1cnc2ccccc2n1
EC50 [5]: > 67.5 µM (inactive) | EC50 (cells [6]): > 67.5 µM (inactive)

CCN(CC)CCCN(C(=O)c1ccco1)c1nc(-c2ccc(Cl)cc2)cs1
AC50 [7]: 45.1 µM (active) | AC50 [8]: 19.2 µM (active) | AC50 [9]: 22.9 µM (active) | EC50 [10]: 9.32 µM (active) | EC50 [11]: 0.87 µM (active)

Oc1cc(Cl)c(Cl)c(Cl)c1
EC50 [1]: > 53 µM (inactive) | IC50 [2]: > 20 µM (inactive) | AC50 (Cytochrome P450 3A4): 12.6 µM (inconclusive) | IC50 [3]: 9.09 µM (active)

CCCCN1C=C(C(=O)OC)C(c2ccccc2C(F)(F)F)C(C(=O)OC)=C1
AC50 [12]: 8.63 µM (active)

Cc1c(Cl)c(C(=O)NN=C(S)Nc2ccccc2)nn1C
IC50 [4]: > 122 µM (inactive)

CCc1nnc(NS(=O)(=O)c2ccc(N/C=C3/C(=O)NC(=O)N(c4ccccc4)C3=O)cc2)s1
IC50 (cells [13]): 64.4 µM (inactive)

Cc1cc2c(cc1C)NP(=S)(c1ccccc1)N2
EC50 [5]: > 67.6 µM (inactive) | EC50 (cells [6]): > 67.6 µM (inactive)

Cc1c(N2C(=O)/C(=C/c3ccc(N(C)C)cc3)N(C)C2=S)c(=O)n(-c2ccccc2)n1C
IC50 [14]: 36.2 µM (inactive) | IC50 [15]: 19.5 µM (active)

C=CCC[C@@H](Cc1ccc(F)cc1)C(=O)OC[C@@H]1CCCN1C(=O)[C@H](CC=C)CC(=O)N[C@H](CO)Cc1ccccc1
IC50 [16]: > 69.5 µM (inactive) | IC50 [17]: 15.2 µM (inactive)

CCc1nc2ccc(C(=O)Nc3ccc4c(c3)OCC(=O)N4)cn2c1N(CC)Cc1cccc(Br)c1
IC50 [16]: > 69.5 µM (inactive) | IC50 [17]: > 69.5 µM (inactive)

COc1ccc(C(=O)N2C=Cc3ccccc3C2C#N)cc1 (stereo not given)
IC50 [18]: > 100 µM (inactive) | IC50 [19]: 5.74 µM (active)

Cn1c(=O)c2cc(NC(=S)NC3CCCCC3)ccc2n1Cc1ccc(Cl)cc1
AC50 [20]: 58 µM (active)

COc1cc2c(cc1NC(=O)c1ccccc1-c1ccccc1C(=O)O)-c1ccccc1C2
AC50 [20]: > 100 µM (inactive)

O=C(NCc1ccncc1)C(=O)N/N=C/c1ccc(OCc2ccccc2)cc1
IC50 [21]: 10.3 µM (inactive) | IC50 [22]: 13.2 µM (inactive)

C[C@H]1CCC/C=C/[C@@H]2C[C@H](O)C[C@H]2[C@H](O)[C@H]([S+]([O-])c2ccc(O)cc2)CC(=O)O1 (stereo not given in full)
IC50 [23]: 231 µM (active) | IC50 [24]: 2.05 µM (active) | CC50 [25]: 4.03 µM (active)
